The subject of data set [1] is ovariectomized rats. Put plainly: Uterine weight in ovariectomized rat post-menopausal model (4-day dosing). The format is in vivo. As to conditions: for Uterine Weight (% increase vs. OVX): OVX Sprague Dawley rats, oral, daily for 4 days. Here is the method: (§1) In the examples illustrating the methods, a post-menopausal model was used in which effects of different treatments upon circulating lipids were determined.
(§2) Seventy-five day old female Sprague Dawley rats (weight range of 200 to 225g) were obtained from Charles River Laboratories (Portage, Mich.). The animals were either bilaterally ovariectomized (OVX) or exposed to a Sham surgical procedure at Charles River Laboratories, and then shipped after one week. Upon arrival, they were housed in metal hanging cages in groups of 3 or 4 per cage and had ad libitum access to food (calcium content approximately 0.5%) and water for one week. Room temperature was maintained at 22.20°±1.7° C. with a minimum relative humidity of 40%. The photoperiod in the room was 12 hours light and 12 hours dark.
(§3) Dosing Regimen Tissue Collection. After a one week acclimation period (therefore, two weeks post-OVX) daily dosing with test compound was initiated. 17α-ethynyl estradiol or the test compound were given orally, unless otherwise stated, as a suspension in 1% carboxymethylcellulose or dissolved in 20% cyclodextrin. Animals were dosed daily for 4 days. Following the dosing regimen, animals were weighed and anesthetized with a ketamine: xylazine (2:1, V:V) mixture and a blood sample was collected by cardiac puncture. The animals were then sacrificed by asphyxiation with CO2, the uterus was removed through a midline incision, and a wet uterine weight was determined.

The test system of data set [2] is Uterine Eosinophil Peroxidase (EPO). Put plainly: Uterine Eosinophil Peroxidase (EPO) Assay. Format: in vivo, rat.
From the text: as §2, §3
Uterine Eosinophil Peroxidase (EPO) Assay. Uteri were kept at 4° C. until time of enzymatic analysis. The uteri were then homogenized in 50 volumes of 50 mM Tris buffer (pH—8.0) containing 0.005% Triton X-100. Upon addition of 0.01% hydrogen peroxide and 10 mM O-phenylenediamine (final concentrations) in Tris buffer, increase in absorbance was monitored for one minute at 450 nm. The presence of eosonophils in the uterus is an indication of estrogenic activity of a compound. The maximal velocity of a 15 second interval was determined over the initial, linear portion of the reaction curve.

The subject of data set [3] is ovariectomized rats. Put plainly: Serum cholesterol in ovariectomized rat post-menopausal model. The format is in vivo. The following applies: OVX Sprague Dawley rats, oral, daily for 4 days. Here is the method: as §1, §2, §3
Cholesterol Analysis. Blood samples were allowed to clot at room temperature for 2 hours, and serum was obtained following centrifugation for 10 minutes at 3000 rpm. Serum cholesterol was determined using a Boehringer Mannheim Diagnostics high performance cholesterol assay. Briefly the cholesterol was oxidized to cholest-4-en-3-one and hydrogen peroxide. The hydrogen peroxide was then reacted with phenol and 4-aminophenazone in the presence of peroxidase to produce a p-quinone imine dye, which was read spectrophotemetrically at 500 nm. Cholesterol concentration was then calculated against a standard curve. The entire assay was automated using a Biomek Automated Workstation.

The test system of data set [4] is Uterine Eosinophil Peroxidase (EPO). Kind of data set: Uterine Eosinophil Peroxidase (EPO) Assay. Format: in vivo, rat. The following applies: stromal layer of ovariectomized rats.
Data set [5] concerns MCF-7 breast adenocarcinoma cells. Kind of data set: MCF-7 Proliferation Assay. Format: cell-based. As to conditions: Homo sapiens, MCF7; MCF-7 cells, 48 hours with drug, 4 hours thymidine pulse; read-out: IC50 (MCF-7 proliferation, tritiated thymidine). Here is the method:
MCF-7 breast adenocarcinoma cells (ATCC HTB 22) were maintained in MEM (minimal essential medium, phenol red-free, Sigma, St. Louis, Mo.) supplimented with 10% fetal bovine serum (FBS) (V/V), L-glutamine (2 mM), sodium pyruvate (1 mM), HEPES {(N-[2-hydroxyethyl]piperazine-N′-[2-ethanesulfonic acid]10 mM}, non-essential amino acids and bovine insulin (1 ug/mL) (maintenance medium). Ten days prior to assay, MCF-7 cells were switched to maintenance medium supplemented with 10% dextran coated charcoal stripped fetal bovine serum (DCC-FBS) assay medium) in place of 10% FBS to deplete internal stores of steroids. MCF-7 cells were removed from maintenance flasks using cell dissociation medium (Ca++/Mg++ free HBSS (phenol red-free) supplemented with 10 mM HEPES and 2 mM EDTA). Cells were washed twice with assay medium and adjusted to 80,000 cells/ML. Approximately 100 μL (8,000 cells) were added to flat-bottom microculture wells (Costar 3596) and incubated at 37° C. in a 5% CO2 humidified incubator for 48 hours to allow for cell adherence and equilibration after transfer. Serial dilutions of drugs or DMSO as a diluent control were prepared in assay medium and 50 μL transferred to triplicate microcultures followed by 50 μL assay medium for a final volume of 200 μL. After an additional 48 hours at 37° C. in a 5% CO2 humidified incubator, microcultures were pulsed with tritiated thymidine (1 uCi/well) for 4 hours. Cultures were terminated by freezing at −70° C. for 24 hours followed by thawing and harvesting of microcultures using a Skatron Semiautomatic Cell Harvester. Samples were counted by liquid scintillation using a Wallac BetaPlace β counter. Results in Table 2 below show the ED50 for certain compounds of the present invention.

[6] abbreviates: OVX Sprague Dawley rats, oral, daily for 4 days, dose 0.1 mg/kg.
[7] abbreviates: OVX Sprague Dawley rats, oral, daily for 4 days, dose 0.01 mg/kg.
Setting [8] is: OVX Sprague Dawley rats, oral, daily for 4 days, dose 1.0 mg/kg.

The results in this text go back to patent US6479517B1, “Phosphorous-containing benzothiophenes” (Eli Lilly and Company, priority 1995, dated 2002).

As for `C#C[C@]1(O)CC[C@H]2[C@@H]3CCc4cc(O)ccc4[C@H]3CC[C@@]21C` [EE2, 17α-ethynyl estradiol, reference compound], in data set [1] (dose 0.1 mg/kg), the “Uterine Weight (% increase vs. OVX)” value was 171.5%. The “Effect on uterine weight (in words)” value in data set [1] (compared to ovariectomized test animals, EE2 orally at 0.1 mg/kg/day) is recorded as “substantially greater than the uterine weight of ovariectomized test animals”. Besides, the “Uterine EPO (V. max)” value in data set [2] (setting [6]) is 109.3. In addition, the “Serum Cholesterol (% decrease vs. OVX)” value in data set [3] (dose 0.1 mg/kg) is recorded as 85.9%. The “Eosinophil infiltration into the uterus (in words)” value in data set [4] is given as “substantial, expected increase in eosinophil infiltration”.

Regarding `CCOP(=O)(OCC)Oc1ccc(-c2sc3cc(OP(=O)(OCC)OCC)ccc3c2C(=O)c2ccc(OCCN3CCCCC3)cc2)cc1.Cl` [Example 1], the results for the “Uterine Weight (% increase vs. OVX)” value in data set [1] (dose 0.01 mg/kg), in data set [1] (dose 0.1 mg/kg) and in data set [1] (dose 1.0 mg/kg) were 51.5%, 25.2% and 37.0%, respectively. Moreover, the results for the “Uterine EPO (V. max)” value in data set [2] (setting [7]), in data set [2] (setting [6]) and in data set [2] (setting [8]) were 0.68, 6.5 and 5.8, respectively. Also, the “Serum Cholesterol (% decrease vs. OVX)” value in data set [3] (dose 0.01 mg/kg) stood at 24.3%; in data set [3] (dose 0.1 mg/kg), 41.1%; in data set [3] (dose 1.0 mg/kg) it was 17.4%. For the same compound, in data set [5], the IC50 is 1 nM.

As to `Cl.O=C(c1ccc(OCCN2CCCCC2)cc1)c1c(-c2ccc(OP(=O)(Oc3ccccc3)Oc3ccccc3)cc2)sc2cc(OP(=O)(Oc3ccccc3)Oc3ccccc3)ccc12` [Example 2], the “Uterine Weight (% increase vs. OVX)” value in data set [1] (dose 0.01 mg/kg) is reported as 17.4%; in data set [1] (dose 0.1 mg/kg), 12.4%; in data set [1] (dose 1.0 mg/kg), 31.4%. In addition, the “Uterine EPO (V. max)” value is listed as 4 in data set [2] (setting [7]), 9.8 in data set [2] (setting [6]) and 5.6 in data set [2] (setting [8]). Moreover, the figures for the “Serum Cholesterol (% decrease vs. OVX)” value in data set [3] (dose 0.01 mg/kg), in data set [3] (dose 0.1 mg/kg) and in data set [3] (dose 1.0 mg/kg) were −48.2%, 15.6% and 55.2%, respectively. Also, in data set [5], the IC50 was determined as 10 nM.

Turning to `Cl.O=C(c1ccc(OCCN2CCCCC2)cc1)c1c(-c2ccc(OP(=O)(c3ccccc3)c3ccccc3)cc2)sc2cc(OP(=O)(c3ccccc3)c3ccccc3)ccc12` [Example 3], the “Uterine Weight (% increase vs. OVX)” value in data set [1] (dose 0.01 mg/kg) turned out to be 22.5%; in data set [1] (dose 0.1 mg/kg) it was 47.1%; in data set [1] (dose 1.0 mg/kg) it was 24.7%. For the same compound, the entries for the “Uterine EPO (V. max)” value in data set [2] (setting [7]), in data set [2] (setting [6]) and in data set [2] (setting [8]) were 3.7, 7 and 6.7, respectively. Also, the results for the “Serum Cholesterol (% decrease vs. OVX)” value in data set [3] (dose 0.01 mg/kg), in data set [3] (dose 0.1 mg/kg) and in data set [3] (dose 1.0 mg/kg) were −25%, 37.6% and 57.5%, respectively. The IC50 in data set [5] came out at 1 nM.

Turning to `Cl.O=C(c1ccc(OCCN2CCCCC2)cc1)c1c(-c2ccc(O)cc2)sc2cc(O)ccc12` [Raloxifene, 6-hydroxy-2-(4-hydroxyphenyl)-3-[4-(2-piperidinoethoxy)benzoyl]benzo[b]thiophene, hydrochloride, reference compound], the “Uterine EPO (V. max)” value in data set [2] (rat, in vivo, po, 0.01 mg/kg) was 2.2; in data set [2] (rat, in vivo, po, 0.1 mg/kg), 4.3; in data set [2] (rat, in vivo, po, 1 mg/kg), 3.9. The “Serum Cholesterol (% decrease vs. OVX)” value is 65% in data set [3] (dose 0.01 mg/kg), 75.6% in data set [3] (dose 0.1 mg/kg) and 71.1% in data set [3] (dose 1.0 mg/kg).
